Columns and labels:
[1] = Influencing factor stability study on crystal forms (light, high temperature, high humidity, 30 days); format: physicochemical
[2] = Dynamic vapor sorption (DVS) hygroscopicity testing; format: physicochemical
From the text: According to the description of hygroscopicity characteristics and the definitions of hygroscopic weight gains in "General Rule 9103, Guidelines for Hygroscopicity Trials for Pharmaceuticals" in the Chinese Pharmacopoeia, Volume IV, 2015 Edition, • deliquescent: sufficient water is absorbed to form a liquid; • extremely hygroscopic: the hygroscopic weight gain is not less than 15%; • hygroscopic: the hygroscopic weight gain is less than 15% but not less than 2%; • slightly hygroscopic: the hygroscopic weight gain is less than 2% but not less than 0.2%; nonhygroscopic or practically nonhygroscopic: the hygroscopic weight gain is less than 0.2%.
DVS refers to dynamic vapor sorption: The analysis was performed using SMS DVS Advantage; at 25 °C, the humidity was changed as follows: 50%-95%-0%-95%-50%, in steps of 10% (5% for the last step) (specific humidity ranges are shown in corresponding patterns, and those listed here were used in most cases); the criterion was dm/dt being not greater than 0.002%.

[3] = Light exposure (4500 Lux), 7 days
[4] = Light exposure (4500 Lux), 14 days
[5] = Light exposure (4500 Lux), 30 days
[6] = Light exposure (4500 Lux), 5 days
[7] = Light exposure (4500 Lux), 10 days

Structure (SMILES): C=CC(=O)N1CCN2C(=O)c3cc(F)c(-c4ccc(F)c5sc(N)c(C#N)c45)c4c(Cl)nn(c34)CC[C@H]2C1 [crystal form M]
- Color and state ([1]; 40 °C, 7 days): Off-white solid
- Crystal form ([1]; 40 °C, 7 days): Did not change
- Purity (%) ([1]; 40 °C, 7 days): 99.1%
- Color and state ([1]; 40 °C, 14 days): Off-white solid
- Crystal form ([1]; 40 °C, 14 days): Did not change
- Purity (%) ([1]; 40 °C, 14 days): 99.1%
- Color and state ([1]; 40 °C, 30 days): Off-white solid
- Crystal form ([1]; 40 °C, 30 days): Did not change
- Purity (%) ([1]; 40 °C, 30 days): 98.9%
- Color and state ([1]; 60 °C, 7 days): Off-white solid
- Crystal form ([1]; 60 °C, 7 days): Did not change
- Purity (%) ([1]; 60 °C, 7 days): 99.1%
- Color and state ([1]; 60 °C, 14 days): Off-white solid
- Crystal form ([1]; 60 °C, 14 days): Did not change
- Purity (%) ([1]; 60 °C, 14 days): 99.1%
- Color and state ([1]; 60 °C, 30 days): Off-white solid
- Crystal form ([1]; 60 °C, 30 days): Did not change
- Purity (%) ([1]; 60 °C, 30 days): 99.0%
- Color and state ([1]; 75% RH, 7 days): Off-white solid
- Crystal form ([1]; 75% RH, 7 days): Did not change
- Purity (%) ([1]; 75% RH, 7 days): 99.2%
- Color and state ([1]; 75% RH, 14 days): Off-white solid
- Crystal form ([1]; 75% RH, 14 days): Did not change
- Purity (%) ([1]; 75% RH, 14 days): 99.2%
- Color and state ([1]; 75% RH, 30 days): Off-white solid
- Crystal form ([1]; 75% RH, 30 days): Did not change
- Purity (%) ([1]; 75% RH, 30 days): 99.2%
- Color and state ([1]; 92.5% RH, 7 days): Off-white solid
- Crystal form ([1]; 92.5% RH, 7 days): Did not change
- Purity (%) ([1]; 92.5% RH, 7 days): 99.2%
- Color and state ([1]; 92.5% RH, 14 days): Off-white solid
- Crystal form ([1]; 92.5% RH, 14 days): Did not change
- Purity (%) ([1]; 92.5% RH, 14 days): 99.2%
- Color and state ([1]; 92.5% RH, 30 days): Off-white solid
- Crystal form ([1]; 92.5% RH, 30 days): Did not change
- Purity (%) ([1]; 92.5% RH, 30 days): 99.2%
- Color and state ([1]; Initial, 0 days): Off-white solid
- Crystal form ([1]; Initial, 0 days): Crystal form M
- Purity (%) ([1]; Initial, 0 days): 99.2%
- Color and state [1, 3]: Off-white solid
- Crystal form [1, 3]: Did not change
- Purity (%) [1, 3]: 99.2%
- Color and state [1, 4]: Off-white solid
- Crystal form [1, 4]: Did not change
- Purity (%) [1, 4]: 99.2%
- Color and state [1, 5]: Off-white solid
- Crystal form [1, 5]: Did not change
- Purity (%) [1, 5]: 99.0%
- hygroscopic weight gain ([2]; accelerated experimental conditions (70% RH)): about 0.55%
- crystal form re-identified after DVS testing ([2]; after DVS testing): did not change
- hygroscopic weight gain ([2]; extreme conditions (90% RH)): about 0.73%
- desorption process of the sample versus its adsorption process ([2]; humidity changing from 0% to 95% RH): substantially overlapped
- hygroscopic weight gain ([2]; normal storage conditions (25 °C and 60% RH)): about 0.48%

Structure (SMILES): C=CC(=O)N1CCN2C(=O)c3cc(F)c(-c4ccc(F)c5sc(N)c(C#N)c45)c4c(Cl)nn(c34)CC[C@H]2C1 [crystal form C]
- Color and state ([1]; 40 °C, 5 days): Off-white solid
- Crystal form ([1]; 40 °C, 5 days): Did not change
- Purity (%) ([1]; 40 °C, 5 days): 98.0%
- Color and state ([1]; 40 °C, 10 days): Off-white solid
- Crystal form ([1]; 40 °C, 10 days): Did not change
- Purity (%) ([1]; 40 °C, 10 days): 97.6%
- Color and state ([1]; 40 °C, 30 days): Off-white solid
- Crystal form ([1]; 40 °C, 30 days): Did not change
- Purity (%) ([1]; 40 °C, 30 days): 97.2%
- Color and state ([1]; 60 °C, 5 days): Off-white solid
- Crystal form ([1]; 60 °C, 5 days): Did not change
- Purity (%) ([1]; 60 °C, 5 days): 98.0%
- Color and state ([1]; 60 °C, 10 days): Off-white solid
- Crystal form ([1]; 60 °C, 10 days): Did not change
- Purity (%) ([1]; 60 °C, 10 days): 97.9%
- Color and state ([1]; 60 °C, 30 days): Off-white solid
- Crystal form ([1]; 60 °C, 30 days): Did not change
- Purity (%) ([1]; 60 °C, 30 days): 97.5%
- Color and state ([1]; 75% RH, 5 days): Off-white solid
- Crystal form ([1]; 75% RH, 5 days): Did not change
- Purity (%) ([1]; 75% RH, 5 days): 98.1%
- Color and state ([1]; 75% RH, 10 days): Off-white solid
- Crystal form ([1]; 75% RH, 10 days): Did not change
- Purity (%) ([1]; 75% RH, 10 days): 98.1%
- Color and state ([1]; 75% RH, 30 days): Off-white solid
- Crystal form ([1]; 75% RH, 30 days): Did not change
- Purity (%) ([1]; 75% RH, 30 days): 98.1%
- Color and state ([1]; 92.5% RH, 5 days): Off-white solid
- Crystal form ([1]; 92.5% RH, 5 days): Did not change
- Purity (%) ([1]; 92.5% RH, 5 days): 98.1%
- Color and state ([1]; 92.5% RH, 10 days): Off-white solid
- Crystal form ([1]; 92.5% RH, 10 days): Did not change
- Purity (%) ([1]; 92.5% RH, 10 days): 98.1%
- Color and state ([1]; 92.5% RH, 30 days): Off-white solid
- Crystal form ([1]; 92.5% RH, 30 days): Did not change
- Purity (%) ([1]; 92.5% RH, 30 days): 98.1%
- Color and state ([1]; Initial, 0 days): Off-white solid
- Crystal form ([1]; Initial, 0 days): Crystal form C
- Purity (%) ([1]; Initial, 0 days): 98.2%
- Color and state [1, 6]: Off-white solid
- Crystal form [1, 6]: Did not change
- Purity (%) [1, 6]: 98.0%
- Color and state [1, 7]: Off-white solid
- Crystal form [1, 7]: Did not change
- Purity (%) [1, 7]: 97.9%
- Color and state [1, 5]: Off-white solid
- Crystal form [1, 5]: Did not change
- Purity (%) [1, 5]: 97.5%

From patent publication EP4700027A1, “CRYSTALLINE FORM OF NITROGEN-CONTAINING TETRACYCLIC COMPOUND AND PREPARATION METHOD THEREFOR” (Jiangsu Hengrui Pharmaceuticals Co., Ltd., priority 2023, dated 2024)
